Results on twelve compounds are retold here after patent publication US11034725B2, “Compositions and methods for treating cardiovascular disease” (Genentech, Inc., priority 2016, dated 2021).

One test concerns the target PCSK9 (Homo sapiens, UniProt Q8NBP7). In words: PCSK9/EGF(A) TR-FRET binding assay. The note with it: for IC50: TR-FRET, read-out: PCSK9/EGF(A) IC50.
Another test addresses T1, PCSK9Δhelix (Homo sapiens, UniProt Q8NBP7).
T1 construct: Human PCSK9 construct M1-Q692 with an engineered TEV site (residue deletion Y166, R167); made in house; host or cells: CHO
In words: PCSK9Δhelix/Ab20 TR-FRET binding assay. The note with it: for IC50: TR-FRET, Example 7, read-out: PCSK9Δhelix/Ab20 IC50.

A further test concerns His-EGF(A)-Fc. Nature of the test: His-EGF(A)-Fc TR-FRET counterscreen.
The mark [1] stands for this setting: Table 8D, disulfide-cyclized extension peptides.
Where [2] appears, read: TR-FRET counterscreen, Table 8D, * = some inhibition at highest concentrations, not sufficient to fit an IC50.
Setting [3] is: TR-FRET counterscreen, Table 8E, additional compounds.

Like-named read-outs stand apart in the source and are kept apart here. Bridge positions count the residues as written; N and C are the ends. Square brackets hold non-standard residues; d marks the D form. Peptide text beside a SMILES is read from it. * marks the point of attachment. hArg = N=C(N)NCCCC[C@H](N)C(=O)O; Pentanoyl = CCCCC(=O)* Some results are limits rather than exact numbers.

T1 sequence (Q8NBP7 with tags, fused parts or gaps limits assumed): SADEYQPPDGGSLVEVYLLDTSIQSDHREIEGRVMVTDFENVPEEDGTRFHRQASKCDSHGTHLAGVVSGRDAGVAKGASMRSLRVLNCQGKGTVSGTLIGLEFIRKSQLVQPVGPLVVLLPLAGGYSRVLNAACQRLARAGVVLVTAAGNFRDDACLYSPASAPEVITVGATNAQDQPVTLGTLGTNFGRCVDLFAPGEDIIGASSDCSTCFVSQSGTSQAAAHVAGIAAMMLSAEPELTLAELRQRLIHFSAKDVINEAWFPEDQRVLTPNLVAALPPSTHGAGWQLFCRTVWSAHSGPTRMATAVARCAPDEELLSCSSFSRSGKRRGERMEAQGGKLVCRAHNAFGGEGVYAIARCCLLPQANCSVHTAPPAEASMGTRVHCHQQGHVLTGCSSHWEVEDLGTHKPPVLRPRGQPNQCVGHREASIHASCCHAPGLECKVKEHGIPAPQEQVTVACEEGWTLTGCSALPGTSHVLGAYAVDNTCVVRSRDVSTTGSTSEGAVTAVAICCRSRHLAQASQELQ
T1 sequence (Q8NBP7 31-152 partner limits assumed): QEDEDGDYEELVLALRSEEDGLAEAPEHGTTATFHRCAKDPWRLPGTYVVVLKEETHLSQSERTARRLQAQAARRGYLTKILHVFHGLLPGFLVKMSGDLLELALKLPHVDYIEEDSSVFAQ
PCSK9, sequence (Q8NBP7 153-692): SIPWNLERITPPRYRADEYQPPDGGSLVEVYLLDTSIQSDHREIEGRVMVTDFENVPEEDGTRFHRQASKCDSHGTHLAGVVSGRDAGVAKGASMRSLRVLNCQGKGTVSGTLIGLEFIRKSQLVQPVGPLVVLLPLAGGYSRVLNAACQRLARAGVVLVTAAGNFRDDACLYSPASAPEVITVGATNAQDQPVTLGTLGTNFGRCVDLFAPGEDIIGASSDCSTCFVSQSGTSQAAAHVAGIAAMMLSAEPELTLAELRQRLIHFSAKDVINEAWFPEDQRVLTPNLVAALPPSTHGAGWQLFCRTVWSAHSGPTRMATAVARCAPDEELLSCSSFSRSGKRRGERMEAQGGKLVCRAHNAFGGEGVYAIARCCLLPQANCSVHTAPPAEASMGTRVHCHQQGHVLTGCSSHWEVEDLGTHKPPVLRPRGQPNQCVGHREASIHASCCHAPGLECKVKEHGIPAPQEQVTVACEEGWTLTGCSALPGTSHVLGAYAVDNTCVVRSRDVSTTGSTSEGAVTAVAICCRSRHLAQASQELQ
PCSK9, sequence (Q8NBP7 31-152 partner limits assumed): as the sequence (Q8NBP7 31-152 partner limits assumed) above
Procedure for His-EGF(A)-Fc: The former was based on a TF-FRET assay to measure the association of the EGF(A) domain of the LDLR to PCSK9 (“PCSK9/EGF(A) binding assay”) whilst the latter was based on a TR-FRET assay to measure binding of Ab20 to PCSK9Δhelix (“PCSK9Δhelix/Ab20 binding assay”).
The ability of compounds to inhibit binding to PCSK9 was evaluated with a panel of time-resolved fluorescence resonance energy transfer (TR-FRET) binding assays. […] The PCSK9Δhelix/Ab20 binding assay evaluated the ability of compounds to compete with Ab20 for binding to the N-terminal groove region in a His-tagged, PCSK9Δhelix construct. […] Signal generation in the PCSK9 binding assays was dependent upon the binding interaction to bring into close proximity the His-tag on the PCSK9 and the Fc-tag on the ligand. Anti-His-APC was bound to the His-tag, and anti-Fc-europium was bound to the Fc-tag. When these two antibodies were in close proximity and were irradiated with light at 340 nm, the europium was excited and emitted energy at 615 nm. This energy was taken up by the APC and was emitted as light at 665 nm. Compounds that competed with the ligand reduced the energy transfer and thus the emission at 665 nm. In the His-EGFA-Fc molecule in the counterscreen, the two tags were always in close proximity, thus any reduction in emission at 665 nm was due to interference with the detection system.
Compounds were solubilized and dilutions were prepared in DMSO. […] The plate was centrifuged to mix the well contents and allowed to incubate for 30 min. […] The TR-FRET signal was read on a ViewLux reader (PerkinElmer) with excitation at 340 nm and emission at 615 and 665 nm with a 50-μs time delay between excitation and measurement of emission. The TR-FRET ratio was calculated as the fluorescence emission at 665 nm divided by the fluorescence emission at 615 nm. The normalized TR-FRET ratios were plotted as a function of the compound concentrations, and the IC50 values were determined using a 4-parameter logistic regression.
In black 1536-well assay plates (MaKO, Aurora® Microplates, Whitefish, Mont.), 40 nL of peptide in DMSO were preincubated with 2 μL His-tagged PCSK9 plus anti-His-allophycocyanin in assay buffer (50 mM Tris-HCl, pH 7.5, 150 mM NaCl, 2 mM CaCl2, 0.01% Tween®-20, 0.1% bovine gamma globulins, and protease inhibitor cocktail) for 30 min. Then 2 μL of Fc-tagged ligand and anti-Fc-europium in assay buffer were added and allowed to incubate for 2 h.

On to `CC(=O)N[C@H](C(=O)N[C@H](C(=O)N[C@@H](Cc1ccccc1)C(=O)N[C@H](C(=O)N[C@@H](CO)C(=O)N[C@@H](Cc1c[nH]c2ccccc12)C(=O)N[C@@H](CCC(=O)O)C(=O)N[C@@H](CCC(=O)O)C(=O)N[C@@H](Cc1ccc(O)cc1)C(=O)N[C@@H](CC(C)C)C(=O)N[C@@H](CC(=O)O)C(=O)N[C@@H](Cc1c[nH]c2ccccc12)C(=O)N[C@H](C(=O)NCCCCCCCC(=O)N[C@@H](CCCCN)C(=O)N[C@@H](CC(C)C)C(=O)N[C@@H](Cc1c[nH]c2ccccc12)C(=O)N[C@@H](CC(N)=O)C(=O)N[C@@H](CC(C)C)C(=O)NCC(=O)N[C@@H](CCCNC(=N)N)C(=O)N[C@H](C(N)=O)C(C)C)C(C)C)[C@@H](C)O)C(C)C)[C@@H](C)O` [Compound 10], for which the IC50 was 0.63 µM on PCSK9 (Example 7); 0.63 µM on PCSK9Δhelix; over 50 µM with His-EGF(A)-Fc (counterscreen, Example 7).
Regarding `CC[C@H](C)[C@@H]1NC(=O)[C@H](CCCNC(=N)N)NC(=O)[C@H](CCCCN)NC(=O)[C@H](CC(C)C)NC(=O)[C@H](CC(N)=O)NC(=O)[C@H](Cc2c[nH]c3ccccc23)NC(=O)[C@@H](NC(=O)CNC(=O)[C@H](CO)NC(=O)CNC(=O)CNC(=O)[C@@H](NC(=O)[C@H](Cc2c[nH]c3ccccc23)NC(=O)[C@H](CC(=O)O)NC(=O)[C@H](CC(C)C)NC(=O)[C@H](Cc2ccc(O)cc2)NC(=O)[C@H](CCC(=O)O)NC(=O)[C@H](CCC(=O)O)NC(=O)[C@H](Cc2c[nH]c3ccccc23)NC(=O)[C@H](CO)NC(=O)[C@@H](NC(=O)[C@H](Cc2ccccc2)NC(=O)[C@@H](NC(=O)[C@@H](NC(C)=O)[C@@H](C)O)C(C)C)[C@@H](C)O)C(C)C)CSSC[C@@H](C(N)=O)NC(=O)CNC(=O)[C@H](CCC(N)=O)NC(=O)[C@H](CO)NC(=O)CNC1=O` [Compound 13] (Ac-TVFTSWEEYLDWVGGSGCWNLKRIGSQGC-NH2; disulfide 18-29), the “inhibition in the PCSK9/EGF(A) binding assay” value at PCSK9 was “potent inhibitors”. For the same compound, the IC50 at PCSK9 (Example 7) was 0.01 µM; at PCSK9Δhelix it was 0.001 µM; in the test on His-EGF(A)-Fc (counterscreen, Example 7) it was over 50 µM. Moreover, the “inhibition in the PCSK9Δhelix/Ab20 binding assay” value on PCSK9Δhelix is given as “potent inhibitors”.
Regarding `CC[C@H](C)[C@@H]1NC(=O)[C@H](CCCNC(=N)N)NC(=O)[C@H](CCCCN)NC(=O)[C@H](CC(C)C)NC(=O)[C@H](CC(N)=O)NC(=O)[C@H](Cc2c[nH]c3ccccc23)NC(=O)[C@@H](NC(=O)CNC(=O)CNC(=O)[C@H](CO)NC(=O)CNC(=O)[C@@H](NC(=O)[C@H](Cc2c[nH]c3ccccc23)NC(=O)[C@H](CC(=O)O)NC(=O)[C@H](CC(C)C)NC(=O)[C@H](Cc2ccc(O)cc2)NC(=O)[C@H](CCC(=O)O)NC(=O)[C@H](CCC(=O)O)NC(=O)[C@H](Cc2c[nH]c3ccccc23)NC(=O)[C@H](CO)NC(=O)[C@@H](NC(=O)[C@H](Cc2ccccc2)NC(=O)[C@@H](NC(=O)[C@@H](NC(C)=O)[C@@H](C)O)C(C)C)[C@@H](C)O)C(C)C)CSSC[C@@H](C(N)=O)NC(=O)CNC(=O)[C@H](CCC(N)=O)NC(=O)[C@H](CO)NC(=O)CNC1=O` [Compound 14] (Ac-TVFTSWEEYLDWVGSGGCWNLKRIGSQGC-NH2; disulfide 18-29), on PCSK9, the “inhibition in the PCSK9/EGF(A) binding assay” value is “potent inhibitors”. The IC50 was 0.009 µM on PCSK9 (Example 7); 0.001 µM on PCSK9Δhelix; over 50 µM with His-EGF(A)-Fc (counterscreen, Example 7). In addition, the “inhibition in the PCSK9Δhelix/Ab20 binding assay” value at PCSK9Δhelix is on record as “potent inhibitors”.
With `CC[C@H](C)[C@@H]1NC(=O)[C@H](CCCNC(=N)N)NC(=O)[C@H](CCCCN)NC(=O)[C@H](CC(C)C)NC(=O)[C@H](CC(N)=O)NC(=O)[C@H](Cc2c[nH]c3ccccc23)NC(=O)[C@@H](NC(=O)CCCCCCCNC(=O)[C@@H](NC(=O)[C@H](Cc2c[nH]c3ccccc23)NC(=O)[C@H](CC(=O)O)NC(=O)[C@H](CC(C)C)NC(=O)[C@H](Cc2ccc(O)cc2)NC(=O)[C@H](CCC(=O)O)NC(=O)[C@H](CCC(=O)O)NC(=O)[C@H](Cc2c[nH]c3ccccc23)NC(=O)[C@H](CO)NC(=O)[C@@H](NC(=O)[C@H](Cc2ccccc2)NC(=O)[C@@H](NC(=O)[C@@H](NC(C)=O)[C@@H](C)O)C(C)C)[C@@H](C)O)C(C)C)CSSC[C@@H](C(N)=O)NC(=O)CNC(=O)[C@H](CCC(N)=O)NC(=O)[C@H](CO)NC(=O)CNC1=O` [Compound 15], the “inhibition in the PCSK9/EGF(A) binding assay” value at PCSK9 is on record as “maintained potency”. Besides, at PCSK9Δhelix, the “inhibition in the PCSK9Δhelix/Ab20 binding assay” value is given as “maintained potency” and the IC50 turned out to be 0.002 µM. In the test with His-EGF(A)-Fc (counterscreen, Example 7), this compound came in with an IC50 of over 50 µM.
For the compound `CC[C@H](C)[C@@H]1NC(=O)[C@H](CCCNC(=N)N)NC(=O)[C@H](CCC(N)=O)NC(=O)[C@H](CC(C)C)NC(=O)[C@H](CC(N)=O)NC(=O)[C@H](Cc2c[nH]c3ccccc23)NC(=O)[C@@H]2CCCN2C(=O)[C@H](CC(C)C)NC(=O)[C@H](CCCNC(=N)N)NC(=O)[C@@H](NC(C)=O)CSSC[C@@H](C(N)=O)NC(=O)CNC(=O)[C@H](CC(C)C)NC(=O)CNC1=O` [Compound 80] (Ac-CRLPWNLQRIGLGC-NH2; disulfide 1-14), the IC50 at PCSK9 (setting [1]) and in the test with His-EGF(A)-Fc (setting [2]) was over 50 µM each time.
Take `CC[C@H](C)[C@@H]1NC(=O)[C@H](CCCNC(=N)N)NC(=O)[C@H](CCC(N)=O)NC(=O)[C@H](CC(C)C)NC(=O)[C@H](CC(N)=O)NC(=O)[C@H](Cc2c[nH]c3ccccc23)NC(=O)[C@@H]2CCCN2C(=O)[C@H](CC(C)C)NC(=O)[C@H](CCCNC(=N)N)NC(=O)[C@H](NC(C)=O)CSSC[C@@H](C(N)=O)NC(=O)[C@@H]2CCCN2C(=O)[C@H](CC(C)C)NC(=O)CNC1=O` [Compound 110] (Ac-[dC]RLPWNLQRIGLPC-NH2; disulfide 1-14): the IC50 on PCSK9 (setting [1]) and in the test with His-EGF(A)-Fc (setting [2]) was over 50 µM in each case.
Turning to `CCCCC(=O)N[C@@H](Cc1c[nH]c2ccccc12)C(=O)N[C@@H](CC(N)=O)C(=O)N[C@@H](CC(C)C)C(=O)N[C@H](C(=O)N[C@@H](CCCNC(=N)N)C(=O)N[C@H](C(=O)NCC(=O)N[C@@H](CC(C)C)C(=O)N[C@@H](CCC(=O)O)C(=O)N[C@@H](CCCNC(=N)N)C(N)=O)[C@@H](C)CC)C(C)C` [Compound 177] (Pentanoyl-WNLVRIGLER-NH2), the IC50 on PCSK9 (Table 8E, additional compounds) was at least 50 µM; in the test on His-EGF(A)-Fc (setting [3]), at least 50 µM.
`CC[C@H](C)[C@H](NC(=O)[C@H](CCCCNC(=N)N)NC(=O)[C@H](CCCCN)NC(=O)[C@H](CC(C)C)NC(=O)[C@H](CC(N)=O)NC(=O)[C@H](Cc1c[nH]c2ccccc12)NC(=O)CNC(=O)[C@@H]1CCCN1C(=O)[C@H](Cc1ccccc1)NC(=O)[C@H](CO)NC(=O)[C@H](CCC(=O)O)NC(=O)[C@H](CCSC)NC(C)=O)C(=O)NCC(=O)N[C@@H](CC(C)C)C(=O)N[C@@H](CC(C)C)C(=O)N[C@@H](CCCNC(=N)N)C(N)=O` [Compound 233] (Ac-MESFPGWNLK[hArg]IGLLR-NH2): the IC50 at PCSK9 (Table 8E, additional compounds) was 3.1 µM; with His-EGF(A)-Fc (setting [3]), at least 50 µM.
The matching figures for Ac-DSYPGWNLVRIGLLR-NH2 [Compound 155]: 11 µM and over 50 µM.
The matching figures for Ac-ESYPGWNLVRIGLLR-NH2 [Compound 156]: 11 µM and over 50 µM.
Take Ac-MDSFPGWNLVRIGLLR-NH2 [Compound 153]: the IC50 on PCSK9 (Table 8E, additional compounds) was 12 µM; in the test with His-EGF(A)-Fc (setting [3]), over 50 µM.
The matching figures for Ac-SFAFPGWNLVRIGLLR-NH2 [Compound 154]: 11 µM and over 50 µM.
